Experimental data reported in ChEMBL document CHEMBL1153253, “Imidazolinones as nonpeptide angiotensin II receptor antagonists” (Bioorg Med Chem Lett, 1994).

Legend:
[1] = target: T1, Type-1 angiotensin II receptor A (Rattus norvegicus, UniProt P25095); assay: Displacement of [125I]- Ang II from type 1 Angiotensin II receptor
T1 sequence (P25095 whole entry): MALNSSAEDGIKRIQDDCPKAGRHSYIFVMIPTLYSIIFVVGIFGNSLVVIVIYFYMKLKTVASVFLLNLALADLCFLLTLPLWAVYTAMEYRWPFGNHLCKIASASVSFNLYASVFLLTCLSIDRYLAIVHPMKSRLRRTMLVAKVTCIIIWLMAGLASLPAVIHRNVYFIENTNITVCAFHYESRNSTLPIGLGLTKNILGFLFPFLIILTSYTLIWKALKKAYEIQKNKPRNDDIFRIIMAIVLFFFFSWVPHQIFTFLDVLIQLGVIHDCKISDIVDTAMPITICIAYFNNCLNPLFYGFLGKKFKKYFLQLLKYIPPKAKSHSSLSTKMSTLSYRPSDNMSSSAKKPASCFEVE

[2] = target: T2, Type-2 angiotensin II receptor (Homo sapiens, UniProt P50052); assay: The compound was tested for the ability to displace 50% of totally specifically bound [125I]- Ang II from Angiotensin II receptor, type 2
T2 sequence (P50052 whole entry): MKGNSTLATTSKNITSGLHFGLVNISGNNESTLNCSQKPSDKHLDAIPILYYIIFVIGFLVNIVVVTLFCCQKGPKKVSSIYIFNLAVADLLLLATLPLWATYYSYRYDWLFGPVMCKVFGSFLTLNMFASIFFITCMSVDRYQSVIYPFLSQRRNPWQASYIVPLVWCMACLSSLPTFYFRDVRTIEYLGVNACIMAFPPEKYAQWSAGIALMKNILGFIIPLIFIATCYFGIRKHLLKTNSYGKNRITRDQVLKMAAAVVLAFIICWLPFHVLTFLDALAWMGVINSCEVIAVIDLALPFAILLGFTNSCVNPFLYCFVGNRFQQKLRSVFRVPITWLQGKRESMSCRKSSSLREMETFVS

Rattus norvegicus = assay: Effective dose required to lower blood pressure by 30 mm Hg in renal hypertensive rats following intravenous administration; format: functional
[3] = target: T3, Type-1 angiotensin II receptor (Homo sapiens, UniProt P30556); assay: The compound was tested for the ability to displace 50% of totally specifically bound [125I]- Ang II from Angiotensin II receptor, type 1 site
T3 sequence (P30556 whole entry): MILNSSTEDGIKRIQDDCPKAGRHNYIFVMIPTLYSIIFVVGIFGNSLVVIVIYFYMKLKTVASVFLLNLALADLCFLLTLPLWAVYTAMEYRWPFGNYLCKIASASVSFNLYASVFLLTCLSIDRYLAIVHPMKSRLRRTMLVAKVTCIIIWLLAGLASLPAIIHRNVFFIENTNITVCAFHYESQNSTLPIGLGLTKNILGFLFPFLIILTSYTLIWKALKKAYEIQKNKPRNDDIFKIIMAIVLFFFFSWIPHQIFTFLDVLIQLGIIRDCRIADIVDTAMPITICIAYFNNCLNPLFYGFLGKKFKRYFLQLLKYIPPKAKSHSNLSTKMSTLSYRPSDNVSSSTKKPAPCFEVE

Row | SMILES | IC50 [1] | IC50 [2] | IC50 [3] | ED30 (Rattus norvegicus)
1 | CCCC1=NC2(CCSCC2)C(=O)N1Cc1ccc(-c2ccccc2-c2nnn[nH]2)cc1 |  |  | 2 nM | 0.26 mg/kg
2 | CCCC1=NC2(CCCC2)C(=O)N1Cc1ccc(-c2ccccc2S(=O)(=O)NC(=O)c2ccccc2)cc1 | 9 nM | 300 nM |  | 0.14 mg/kg
3 | CCCC1=NC(C(F)(F)F)(C(F)(F)F)C(=O)N1Cc1ccc(-c2ccccc2-c2nn[nH]n2)cc1 | 20 nM |  |  | 
4 | CCCC1=NC(C)(C)C(=O)N1Cc1ccc(-c2ccccc2-c2nn[nH]n2)cc1 | 4 nM |  |  | 0.36 mg/kg
5 | CCCC1=NC(c2ccccc2)(c2ccccc2)C(=O)N1Cc1ccc(-c2ccccc2-c2nn[nH]n2)cc1 | 300 nM |  |  | 
6 | O=C1N(Cc2ccc(-c3ccccc3-c3nn[nH]n3)cc2)C(c2ccccc2)=NC1(c1ccccc1)c1ccccc1 | 1400 nM |  |  | 
7 | CC1=NC(c2ccccc2)(c2ccccc2)C(=O)N1Cc1ccc(-c2ccccc2-c2nnn[nH]2)cc1 | 100 nM |  |  | 
8 | CCCC1=NC2(CCOCC2)C(=O)N1Cc1ccc(-c2ccccc2-c2nn[nH]n2)cc1 | 8 nM |  |  | 0.2 mg/kg

The next lines start with results.

Row | IC50 [1] | IC50 [2] | IC50 [3] | SMILES | ED30 (Rattus norvegicus)
9 | 1 nM | 100 nM |  | CCCCC1=NC2(CCCC2)C(=O)N1Cc1ccc(-c2ccccc2S(=O)(=O)NC(=O)c2ccccc2)cc1 | 0.29 mg/kg
10 | 3 nM |  |  | CCCC1=NC2(CC2)C(=O)N1Cc1ccc(-c2ccccc2-c2nn[nH]n2)cc1 | 0.54 mg/kg
11 | 3 nM |  |  | CCCC1=NC2(CCCCC2)C(=O)N1Cc1ccc(-c2ccccc2-c2nnn[nH]2)cc1 | 0.25 mg/kg
12 | 3 nM | 200 nM |  | CCCC1=NC(C)(C)C(=O)N1Cc1ccc(-c2ccccc2S(=O)(=O)NC(=O)c2ccccc2)cc1 | 0.17 mg/kg
13 | 0.9 nM |  |  | CCCC1=NC2(CCCC2)C(=O)N1Cc1ccc(-c2ccccc2-c2nnn[nH]2)cc1 | 0.32 mg/kg
14 | 1 nM | 200 nM |  | CCCC1=NC2(CCSCC2)C(=O)N1Cc1ccc(-c2ccccc2S(=O)(=O)NC(=O)c2ccccc2)cc1 | 0.29 mg/kg
15 | 0.9 nM |  |  | CCCCC1=NC2(CCCC2)C(=O)N1Cc1ccc(-c2ccccc2-c2nnn[nH]2)cc1 [IRBESARTAN] | 0.16 mg/kg
